According to PubChem BioAssay AID179 (DTP/NCI, 2004):
The source made the active and inactive calls.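 How the source made its calls: active means compounds giving half or more protection of infected cells from virus-caused growth loss, again on retest; inactive means the rest.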 Where a SMILES comes first, the peptide text is derived from it. Bridges are numbered along the chain shown (N, C = ends). The star is where a group is joined. Cbz = O=C(OCc1ccccc1)*; Boc = CC(C)(C)OC(=O)*; OBn = c1ccc(CO*)cc1

System: CEM cells HIV-1 protection, formazan growth assay
Experiment: NCI AIDS Antiviral Assay
Conditions: for IC50: measured here: growth of uninfected CEM cells
In short: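 Human CEM cells, uninfected and HIV-1-infected, received five drug concentrations, and growth was read by soluble formazan assay. Compounds giving at least 50% protection were retested; reproducible 100% protection defined confirmed active.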

CC(C)(C)OC(=O)[C@@H]1CCC(=O)N1C1(c2ccccc2)c2ccccc2-c2ccccc21
EC50: > 200 µM | IC50: 141 µM

CN1CCc2cc(O)c3cc2C1Cc1ccc(cc1)Oc1cc(ccc1OC(=O)C(C)(C)C)CC1c2c(cc(OC(=O)C(C)(C)C)c(OC(=O)C(C)(C)C)c2O3)CCN1C (stereo not given)
outcome: inactive

CC(=O)Oc1c(C)c2c(c3ncccc13)OC(C)C2 (stereo not given)
EC50: > 200 µM | IC50: 3.16 µM

CN(C)c1ccc(C2CC(c3ccc4ccccc4c3O)=NN2c2ccc([N+](=O)[O-])cc2[N+](=O)[O-])cc1 (stereo not given)
EC50: > 151 µM | IC50: 33.1 µM

CCOC(=O)C1(CO)CSCCSC1
EC50: > 1050 µM | IC50: > 1050 µM

COc1ccc2c3c([nH]c2c1)CCN(Cc1ccccc1)C3
EC50: > 200 µM | IC50: 45.7 µM

Cc1ccc(N2C(=O)C=C(C3=C(O)C(=O)N(c4ccc(C)cc4)C3=O)C2=O)cc1
EC50: 135 µM | IC50: > 200 µM

Oc1ccc(C(O)(c2ccccc2)c2ccccc2)cc1
EC50: > 67.6 µM | IC50: 41.7 µM

O=c1cc(N2CCOCC2)n2c(ccc3ccccc32)n1
EC50: > 200 µM | IC50: 186 µM

COCC(=O)[C@]1(O)Cc2c(O)c3c(c(O)c2[C@@H](OC2CC(N)C(O)C(C)O2)C1)C(=O)c1c(OC)cccc1C3=O (stereo not given in full)
EC50: > 0.2 µM | IC50: 0.0631 µM

COC(=O)c1cc2c(=O)n(C)c(=O)n(C)c2[nH]c1=O
EC50: > 200 µM | IC50: > 200 µM

O=C(O)C1COCN1C(=O)c1cc2ccccc2cc1SSc1cc2ccccc2cc1C(=O)N1COCC1C(=O)O (stereo not given)
EC50: > 200 µM | IC50: 93.3 µM

CNC(=O)C(C)NC(=O)C(Cc1ccccc1)NC(=O)OC(C)(C)C (stereo not given)
EC50: > 200 µM | IC50: > 200 µM

COc1ccc(/C=C/C(=N\NC(=O)c2ccccc2)c2sc(Nc3ccc([N+](=O)[O-])cc3)nc2C)cc1OC
EC50: > 13.2 µM | IC50: > 13.2 µM

CCOC(=O)CC(Sc1ccccc1)Sc1ccccc1
outcome: inactive

O=C1NC2(CCCC2)C2CCCCC12O (stereo not given)
outcome: inactive

CN(C)/N=C(/c1nc2ccc([N+](=O)[O-])cc2[nH]c1=O)C(O)c1ccco1 (stereo not given)
EC50: > 263 µM | IC50: 191 µM

COc1ccc(NC(=O)C(=O)Cc2ccc([N+](=O)[O-])c([N+](=O)[O-])c2CC(=O)C(=O)Nc2ccc(OC)cc2OC)c(OC)c1
EC50: > 407 µM | IC50: 186 µM

O=c1c2cc([N+](=O)[O-])cnc2sn1-c1ccc(Br)cc1
EC50: > 200 µM | IC50: 63.1 µM

Cc1ccc(NC(=O)C(=O)Cc2nc3ccccc3o2)c(C)c1
EC50: > 12.3 µM | IC50: > 12.3 µM

CCOc1ccc(NCC(=O)N2CC(=O)Nc3cc(C)c(C)cc32)cc1
EC50: > 20.4 µM | IC50: > 20.4 µM

N=C(N)SCC1OCOC1C1OCOC1CSC(=N)N (stereo not given)
EC50: > 776 µM | IC50: > 776 µM

Cc1ccc(N=Nc2c(C)nn(C(=O)CC(=O)Nc3ccc(Cl)cc3)c2C)cc1C
EC50: > 200 µM | IC50: > 200 µM

COC(=O)CCc1cccnc1/C=N/O
EC50: > 1200 µM | IC50: 126 µM

Fc1cccc(F)c1C1SCc2nc3cc4ccccc4cc3n21 (stereo not given)
EC50: > 200 µM | IC50: 24.5 µM

COc1cc2c(c(Cl)c1OC)CCN(C)CC2c1ccccc1 (stereo not given)
EC50: > 200 µM | IC50: 70.8 µM

O=S(=O)(O)c1cc(N=Nc2cc(S(=O)(=O)O)c3cccnc3c2O)ccc1/C=C/c1ccc(N=Nc2cc(S(=O)(=O)O)c3cccnc3c2O)cc1S(=O)(=O)O.[Cu+2].[Na+]
EC50: > 10.7 µM | IC50: 1.2 µM

O=C(NS(=O)(=O)Nc1ccccc1)OCC1CCCCC1
EC50: > 200 µM | IC50: 135 µM

O=Nc1c(S(=O)(=O)O)cc2cc(S(=O)(=O)O)ccc2c1O
EC50: > 200 µM | IC50: > 200 µM

NC(=O)C(N)(c1ccccc1)c1ccccc1
outcome: inactive

NCCSSc1ccccc1[N+](=O)[O-]
EC50: > 200 µM | IC50: 11.2 µM

O=C(N/C(=C\c1ccc(Oc2ccc(Cl)c(Cl)c2)cc1)c1nc2ccccc2[nH]1)c1ccccc1
outcome: inactive

C=C[C@@H]1c2ccccc2C=C[C@]1(CCC1(C)OCCO1)C1=NC(C)(C)CO1
EC50: > 70.8 µM | IC50: > 70.8 µM

COC(=O)C(=O)C(CC(=O)Nc1cccc(C(F)(F)F)c1)C(=O)OC (stereo not given)
EC50: > 14.5 µM | IC50: > 14.5 µM

Cn1c2c(c3ccccc31)CCN(CCCCN1CCN(c3cccc(Cl)c3)CC1)C2=O
EC50: > 11 µM | IC50: > 11 µM

CC(=O)C1(O)CC2(c3ccccc3)C(=O)C1(c1ccccc1)C(c1ccccc1)=C2c1ccccc1 (stereo not given)
outcome: inactive

NCCCCN(CCCN)/[N+]([O-])=N\O
EC50: > 7590 µM | IC50: 91.2 µM

COC(=O)C1CCCCNC(=O)CCC(NC(=O)OCc2ccccc2)C(=O)N1 (stereo not drawn) (Cbz-Glu-Lys-OMe; lactam 1-2; configuration not given here)
EC50: > 200 µM | IC50: > 200 µM

CCCC(=O)N1CCN(c2ccc3c(c2)OC(C)O3)CC1 (stereo not given)
EC50: > 200 µM | IC50: > 200 µM

N#Cc1c(-c2ccc([N+](=O)[O-])cc2)c(C#N)c(=O)n(NS(=O)(=O)c2ccccc2)c1-c1ccccc1
EC50: > 200 µM | IC50: 36.3 µM

CC1(C)CNC[C@@](C)(O)C(=O)NC(C)(C)CNC[C@](C)(O)C(=O)N1
EC50: 186 µM | IC50: > 200 µM

O=C(CCl)Nc1ccccc1-c1ccccc1NC(=O)CCl
outcome: inactive

O=C(CCSCCC(=O)NNc1ccccc1)NNc1ccccc1
EC50: > 20 µM | IC50: > 20 µM

FC(F)(Sc1ncccn1)c1nc2ccccc2o1
EC50: 19.5 µM | IC50: 102 µM

Cc1cc(NS(=O)(=O)c2ccc(Nc3c4ccccc4nc4c(C(=O)NC(CO)(CO)CO)cccc34)cc2)no1
EC50: > 200 µM | IC50: 11.2 µM

Cc1nn(-c2ccccc2)c2c1N=C(C(=O)O)CC(c1ccccc1)=N2
EC50: > 200 µM | IC50: 91.2 µM

CN1C(CCl)Nc2cc(Cl)c(S(N)(=O)=O)cc2S1(=O)=O (stereo not given)
EC50: > 363 µM | IC50: 64.6 µM

COc1ccc2c(c1)[n+](=O)c(C(=O)CC(=O)C(=O)Nc1cccc(Cl)c1C)c(C)n2[O-]
EC50: > 100 µM | IC50: 46.8 µM

COc1cc2c(-c3onc4ccc(OCc5ccccc5)cc34)nccc2c(OC)c1OC
outcome: inactive

Cc1cc(=O)[nH]c2[nH][nH]c(=O)c12
outcome: inactive

COCn1c2ccccc2c2nc(-c3ccncc3)nc(-c3ccncc3)c21
EC50: > 3.98 µM | IC50: > 3.98 µM

CC(C)C(NC(=O)CNC(=O)C1CCCN1C(=O)C(NC(=O)OC(C)(C)C)C(C)C)C(=O)NCC(=O)OCc1ccccc1 (stereo not given) (Boc-VPGVG-OBn; configuration not given here)
EC50: > 200 µM | IC50: 117 µM

CCCCCC=C(c1cc(C(=O)OC)c(OC)c(C(F)(F)F)c1)c1cc(C(=O)OC)c(OC)c(C(F)(F)F)c1
EC50: > 200 µM | IC50: 105 µM

Cc1cccc2c(N)c3cccc(C(=O)NCCN(C)C)c3nc12
EC50: > 200 µM | IC50: 0.0631 µM

COc1ccc(C[C@H](N)C(=O)N2C[C@H](CO)C[C@H](n3ccc(=O)[nH]c3=O)C2)cc1
EC50: > 617 µM | IC50: > 617 µM

CCCSCC(P(=O)(O)O)P(=O)(O)O
outcome: inactive

COC(=O)C(Cc1nc2ccccc2[nH]c1=O)C(=O)C(=O)Nc1ccc([N+](=O)[O-])cc1[N+](=O)[O-] (stereo not given)
EC50: > 55 µM | IC50: 25.7 µM

Cn1c(O)c(N=NC(=O)Cc2c[nH]c3ccccc23)c2ccccc21
EC50: > 200 µM | IC50: > 200 µM

Cc1cc(N=C2C=C(Nc3cc(C)on3)C(=O)c3ccccc32)no1
EC50: > 11.2 µM | IC50: > 11.2 µM

COc1ccc(O)c2c(=O)c3cc(O)ccc3oc12
EC50: > 200 µM | IC50: 30.2 µM
